Legend:
apoE3 and apoE4 mice [1] = experiment: Bexarotene by gavage: Morris swim test; format: in vivo; conditions: 100 mg per kg per day by gavage
Text: Next, the mice were further investigated following removal of the platform from the water arena.

apoE3 and apoE4 mice [2] = experiment: Bexarotene by gavage: fear conditioning test; format: in vivo; conditions: 100 mg per kg per day by gavage; mild electric shock
mouse model of AD = conditions: oral administration; cited from earlier work
apoE3 and apoE4 mice [3] = experiment: Bexarotene by gavage: object recognition test; conditions: 100 mg per kg per day by gavage; apoE4 mice prefer the novel object, similarly to apoE3 mice

C=C(c1ccc(C(=O)O)cc1)c1cc2c(cc1C)C(C)(C)CCC2(C)C [Bexarotene]
Morris swim test, time to reach the platform, apoE4 mice (apoE3 and apoE4 mice [1]; days 1-4, rendered similar to apoE3 mice): improves | Morris swim test, time searching for the missing platform: difference between apoE3 and apoE4 mice (apoE3 and apoE4 mice [1]; platform removed): abolished | fear conditioning, freezing time: difference between apoE3 and apoE4 mice (apoE3 and apoE4 mice [2]): abolished | apoE synthesis (mouse model of AD): enhanced | clearance of soluble Aβ (mouse model of AD): within hours | cognitive deficits (mouse model of AD): rapid reversal | neural circuit function (mouse model of AD): improved | time to reduced Aβ plaque area (mouse model of AD): ≤ 72 h | object recognition impairment in apoE4 mice (time spent near the novel object) (apoE3 and apoE4 mice [3]): reversed

— patent US20150118231A1, “APOE4 ANTIBODIES FOR TREATMENT OF NEURODEGENERATIVE CONDITIONS” (RAMOT AT TEL-AVIV UNIVERSITY LTD., priority 2012, published 2015)
